This note sets out measurements from the supplement of paper PMC11451515.

Common to all, as to experiment: AUC of viability dose-response curve (% viability x log10 dose units); higher = less sensitive
Settings in all cases: 48 h

One assay deals with SEM cells. In outline: (§1)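 In 1536-well plates, leukemia cells adapted to each medium (500 or 1000 cells/well) were exposed for 48 h at 37°C to library compounds in DMSO across 11 threefold doses, 47 μM down to 0.79 nM. Viability was read by CellTiter-Glo One luminescence and normalised per plate to DMSO and cell-free wells. A four-parameter log-logistic fit over log10 doses was integrated by trapezoidal rule. This yielded the area under the curve, with over-full-viability curves scaled and quality-control failures dropped.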

The test system of another assay is P12-Ichikawa. An outline of the steps: as §1
Another assay deals with NOMO1. In outline: as §1
[1] abbreviates: RPMI 5 mM glucose + 10% dialyzed FBS.

Regarding `COC1=CC=C2C(=CC=NC2=C1)OC3=CC=C(NC(=O)\C4=C(C)\N(CC(C)(C)O)N(C4=O)C5=CC=CC=C5)C=C3F`, the “AUC of viability dose-response curve” value in the assay on SEM cells (HPLM + 10% dialyzed FBS) was 404; in the assay on SEM cells (RPMI 5 mM glucose + 10% FBS) it was 379; with SEM cells (setting [1]), 365; in the assay with P12-Ichikawa (HPLM + 10% dialyzed FBS) it was 472; with P12-Ichikawa (RPMI 5 mM glucose + 10% FBS) it was 468; with P12-Ichikawa (setting [1]), 469. In addition, the entries for the “AUC of viability dose-response curve” value with NOMO1 (HPLM + 10% dialyzed FBS), in the assay with NOMO1 (RPMI 5 mM glucose + 10% FBS) and in the assay with NOMO1 (setting [1]) were 459, 468 and 467, respectively.
As to `CCCn1c(=O)c2[nH]c(-c3cnn(Cc4cccc(C(F)(F)F)c4)c3)nc2n(CC)c1=O`, the “AUC of viability dose-response curve” value with SEM cells (HPLM + 10% dialyzed FBS) was 470; with SEM cells (RPMI 5 mM glucose + 10% FBS) it was 467; in the assay on SEM cells (setting [1]), 467; with P12-Ichikawa (HPLM + 10% dialyzed FBS), 446; in the assay on P12-Ichikawa (RPMI 5 mM glucose + 10% FBS), 388; with P12-Ichikawa (setting [1]), 438. In addition, the entries for the “AUC of viability dose-response curve” value in the assay with NOMO1 (HPLM + 10% dialyzed FBS), in the assay with NOMO1 (RPMI 5 mM glucose + 10% FBS) and in the assay with NOMO1 (setting [1]) were 394, 443 and 413, respectively.
For the compound `Cl.Cl.Fc1ccc(C(OCCN2CCN(CCCc3ccccc3)CC2)c2ccc(F)cc2)cc1`, the “AUC of viability dose-response curve” value in the assay with SEM cells (HPLM + 10% dialyzed FBS) turned out to be 460; in the assay on SEM cells (RPMI 5 mM glucose + 10% FBS) it was 458; with SEM cells (setting [1]) it was 458; in the assay on P12-Ichikawa (HPLM + 10% dialyzed FBS) it was 470; in the assay on P12-Ichikawa (RPMI 5 mM glucose + 10% FBS) it was 467; in the assay with P12-Ichikawa (setting [1]), 465. In addition, the “AUC of viability dose-response curve” value was 438 with NOMO1 (HPLM + 10% dialyzed FBS), 457 in the assay with NOMO1 (RPMI 5 mM glucose + 10% FBS) and 446 in the assay on NOMO1 (setting [1]).
Regarding `NC/1=N/C(=O)N(/C=C1)[C@H]2CC[C@@H](CO)O2`, the “AUC of viability dose-response curve” value in the assay on SEM cells (HPLM + 10% dialyzed FBS) came to 437; in the assay with SEM cells (RPMI 5 mM glucose + 10% FBS), 415; in the assay with SEM cells (setting [1]) it was 385; in the assay with NOMO1 (HPLM + 10% dialyzed FBS) it was 435; in the assay on NOMO1 (RPMI 5 mM glucose + 10% FBS) it was 404; in the assay on NOMO1 (setting [1]), 422.
Turning to `O=C(c1ccc(F)cc1)C1CCN(CCn2c(=O)[nH]c3ccccc3c2=O)CC1`, the “AUC of viability dose-response curve” value in the assay with SEM cells (HPLM + 10% dialyzed FBS) stood at 469; with SEM cells (RPMI 5 mM glucose + 10% FBS), 474; in the assay with SEM cells (setting [1]) it was 466; with P12-Ichikawa (HPLM + 10% dialyzed FBS) it was 455; with P12-Ichikawa (RPMI 5 mM glucose + 10% FBS) it was 448; in the assay on P12-Ichikawa (setting [1]) it was 451. Further, the “AUC of viability dose-response curve” value in the assay on NOMO1 (HPLM + 10% dialyzed FBS) was found to be 469; in the assay on NOMO1 (RPMI 5 mM glucose + 10% FBS), 457; in the assay with NOMO1 (setting [1]) it was 453.
Regarding `CCOC(=O)c1ccc(C#Cc2ccc3c(c2)C(C)(C)CCS3)nc1`, the “AUC of viability dose-response curve” value in the assay with SEM cells (HPLM + 10% dialyzed FBS) stood at 472; in the assay with SEM cells (RPMI 5 mM glucose + 10% FBS), 477; in the assay with SEM cells (setting [1]), 446; in the assay on P12-Ichikawa (HPLM + 10% dialyzed FBS), 470; with P12-Ichikawa (RPMI 5 mM glucose + 10% FBS), 469; in the assay on P12-Ichikawa (setting [1]) it was 475. Also, the “AUC of viability dose-response curve” value was found to be 436 in the assay on NOMO1 (HPLM + 10% dialyzed FBS), 467 in the assay with NOMO1 (RPMI 5 mM glucose + 10% FBS) and 450 in the assay on NOMO1 (setting [1]).
In the case of `CN(C)C(=O)COC(=O)Cc1ccc(OC(=O)c2ccc(NC(=N)N)cc2)cc1`, the “AUC of viability dose-response curve” value with SEM cells (HPLM + 10% dialyzed FBS) was found to be 465; in the assay on SEM cells (RPMI 5 mM glucose + 10% FBS), 458; with SEM cells (setting [1]) it was 469; in the assay with P12-Ichikawa (HPLM + 10% dialyzed FBS), 446; with P12-Ichikawa (RPMI 5 mM glucose + 10% FBS), 462; with P12-Ichikawa (setting [1]), 437. Also, the “AUC of viability dose-response curve” value in the assay with NOMO1 (HPLM + 10% dialyzed FBS) worked out at 426; in the assay on NOMO1 (RPMI 5 mM glucose + 10% FBS), 469; in the assay with NOMO1 (setting [1]), 465.
As for `CCCCc1oc2ccc(NS(C)(=O)=O)cc2c1C(=O)c1ccc(OCCCN(CCCC)CCCC)cc1`, the “AUC of viability dose-response curve” value with P12-Ichikawa (HPLM + 10% dialyzed FBS) came to 414; with P12-Ichikawa (RPMI 5 mM glucose + 10% FBS) it was 409; in the assay with P12-Ichikawa (setting [1]), 413; in the assay on NOMO1 (HPLM + 10% dialyzed FBS) it was 367; in the assay with NOMO1 (RPMI 5 mM glucose + 10% FBS), 332; in the assay on NOMO1 (setting [1]), 361.
Take `COc1ccc(CCC(=O)Nc2nc3ccc(Cl)cc3s2)cc1OC`: the “AUC of viability dose-response curve” value worked out at 463 in the assay with SEM cells (HPLM + 10% dialyzed FBS); 461 with SEM cells (RPMI 5 mM glucose + 10% FBS); 472 in the assay with SEM cells (setting [1]); 466 with P12-Ichikawa (HPLM + 10% dialyzed FBS); 472 in the assay with P12-Ichikawa (RPMI 5 mM glucose + 10% FBS); 462 with P12-Ichikawa (setting [1]). Further, the “AUC of viability dose-response curve” value with NOMO1 (HPLM + 10% dialyzed FBS) came to 454; in the assay with NOMO1 (RPMI 5 mM glucose + 10% FBS) it was 458; in the assay on NOMO1 (setting [1]), 455.
For `C[Se]CCC(N)C(=O)O` (stereo not given), the “AUC of viability dose-response curve” value in the assay with P12-Ichikawa (HPLM + 10% dialyzed FBS) is 407; with P12-Ichikawa (RPMI 5 mM glucose + 10% FBS) it was 390; in the assay with P12-Ichikawa (setting [1]) it was 388; with NOMO1 (HPLM + 10% dialyzed FBS), 406; in the assay with NOMO1 (RPMI 5 mM glucose + 10% FBS), 406; in the assay with NOMO1 (setting [1]) it was 394.
Consider `CC(=O)SCC(Cc1ccccc1)C(=O)NCC(=O)OCc1ccccc1` (stereo not given), for which the “AUC of viability dose-response curve” value was 451 with SEM cells (HPLM + 10% dialyzed FBS); 443 with SEM cells (RPMI 5 mM glucose + 10% FBS); 442 in the assay on SEM cells (setting [1]); 439 with P12-Ichikawa (HPLM + 10% dialyzed FBS); 445 in the assay with P12-Ichikawa (RPMI 5 mM glucose + 10% FBS); 418 in the assay with P12-Ichikawa (setting [1]). The “AUC of viability dose-response curve” value in the assay on NOMO1 (HPLM + 10% dialyzed FBS) came out at 390; in the assay with NOMO1 (RPMI 5 mM glucose + 10% FBS), 358; in the assay on NOMO1 (setting [1]), 351.
